In US8420657B2 (Novartis AG, priority 2008, dated 2013) one finds IC50 data, which are given here for 27 compounds.

The test system of test [1] is JAK1/JAK2-dependent nuclear translocation of STAT1-GFP in HT1080 fibrosarcoma cells. The test is described as follows: STAT1 nuclear translocation assay (Cellomics), IFN-γ stimulated HT1080 STAT1-GFP cells. The test is classed as cell-based. The gist of the method: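 IC50 derived from percent nuclear STAT1-GFP translocation, computed from nuclear minus cytoplasmic GFP intensity against untreated baseline and DMSO-stimulated control. Stable HT1080 STAT1-GFP cells received compound (0.003–10 μM, 0.1% DMSO) 30 min ahead of a 2 h 100 ng/ml IFN-γ stimulus, then fixation and Hoechst nuclear masking.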

Test [2] concerns the target T1, GST-JAK2(808-1132) (Homo sapiens, UniProt O60674).
T1 construct: GST-JAK2(808-1132); purchased Invitrogen (Carlsbad, USA) #4288
Nature of the test: JAK2 kinase assay (Caliper mobility shift, LabChip 3000). The test is classed as biochemical. The method, boiled down: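 Eight-point compound series (final 10–0.003 μM) tested on purchased GST-JAK2 kinase domain (808-1132). Peptide FITC-JAK3tide plus ATP reacted 60 min, 30 °C, then quenched with EDTA; turnover from charge-based separation of substrate and product.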

Where [3] appears, read: Homo sapiens, HT-1080, STAT1 translocation pathway.

T1 sequence (O60674 808-1132): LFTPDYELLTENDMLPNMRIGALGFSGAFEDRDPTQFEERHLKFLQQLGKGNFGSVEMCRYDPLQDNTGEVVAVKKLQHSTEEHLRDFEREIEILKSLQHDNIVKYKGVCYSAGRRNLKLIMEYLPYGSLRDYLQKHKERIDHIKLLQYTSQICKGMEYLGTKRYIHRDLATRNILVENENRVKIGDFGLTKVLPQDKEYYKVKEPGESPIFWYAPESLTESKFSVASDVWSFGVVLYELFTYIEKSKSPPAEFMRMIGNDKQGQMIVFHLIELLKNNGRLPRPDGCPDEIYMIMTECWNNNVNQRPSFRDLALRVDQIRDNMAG

As usually defined, the IC50 is the concentration at which inhibition is half-maximal. For the compound `Cc1ccc(Nc2ncc3ccn(-c4ccc(C(=O)NCCN5CCOCC5)c(F)c4)c3n2)cc1C` [Example 297, 4-[2-(3,4-Dimethyl-phenylamino)-pyrrolo[2,3-d]pyrimidin-7-yl]-2-fluoro-N-(2-morpholin-4-yl-ethyl)-benzamide], the half-inhibitory concentration (IC50) is 2140 nM in test [1] (setting [3]) and 30 nM in test [2].

For `O=C(c1c(F)cc(-n2ccc3cnc(Nc4ccncc4)nc32)cc1F)N1CCOCC1` [Example 217, {2,6-Difluoro-4-[2-(pyridin-4-ylamino)-pyrrolo[2,3-d]pyrimidin-7-yl]-phenyl}-morpholin-4-yl-methanone], the half-maximal inhibitory concentration (IC50) in test [1] (setting [3]) is 993 nM; in test [2], 7.3 nM.

As to `Cc1ccc(Nc2ncc3ccn(-c4ccc(S(C)(=O)=O)cc4)c3n2)cn1` [Example 229, [7-(4-Methanesulfonyl-phenyl)-7H-pyrrolo[2,3-d]pyrimidin-2-yl]-(6-methyl-pyridin-3-yl)-amine], the IC50 in test [1] (setting [3]) was determined as 1580 nM; in test [2] it was 21 nM.

Turning to `CS(=O)(=O)c1ccc(-n2ccc3cnc(Nc4ccc(CN5CCS(=O)(=O)CC5)cc4)nc32)cc1` [Example 64, [4-(1,1-Dioxido-thiomorpholin-4-ylmethyl)-phenyl]-[7-(4-methanesulfonyl-phenyl)-7H-pyrrolo[2,3-d]pyrimidin-2-yl]-amine], the half-inhibitory concentration (IC50) in test [1] (setting [3]) is 40 nM; in test [2], less than 3 nM.

Consider `CN1CCN(C(=O)c2ccc(Nc3ncc4ccn(-c5cc(F)c(CN6CCS(=O)(=O)CC6)c(F)c5)c4n3)cc2C(F)(F)F)CC1` [Example 186, (4-{7-[4-(1,1-Dioxido-thiomorpholin-4-ylmethyl)-3,5-difluoro-phenyl]-7H-pyrrolo[2,3-d]pyrimidin-2-ylamino}-2-trifluoromethyl-phenyl)-(4-methyl-piperazin-1-yl)-methanone], for which the IC50 in test [1] (setting [3]) was 95 nM; in test [2], less than 3 nM.

Take `CC(=O)N1CCN(Cc2ccc(Nc3ncc4ccn(-c5ccc(C(=O)N6CCOCC6)cc5)c4n3)cc2)CC1` [Example 338, 1-[4-(4-{7-[4-(Morpholine-4-carbonyl)-phenyl]-7H-pyrrolo[2,3-d]pyrimidin-2-ylamino}-benzyl)-piperazin-1-yl]-ethanone]: the figures for the half-maximal inhibitory concentration (IC50) in test [1] (setting [3]) and in test [2] were 135 nM and 3.9 nM, respectively.

Regarding `Cc1ccc(Nc2ncc3ccn(-c4ccc(C(=O)N5CCOCC5)cc4)c3n2)cc1F` [Example 233, {4-[2-(3-Fluoro-4-methyl-phenylamino)-pyrrolo[2,3-d]pyrimidin-7-yl]-phenyl}-morpholin-4-yl-methanone], the results for the IC50 in test [1] (setting [3]) and in test [2] were 1180 nM and 6.4 nM, respectively.

With `O=C(c1ccc(-n2ccc3cnc(Nc4ccc(F)cc4)nc32)cc1)N1CCCC1` [Example 57, {4-[2-(4-Fluoro-phenylamino)-pyrrolo[2,3-d]pyrimidin-7-yl]-phenyl}-pyrrolidin-1-yl-methanone], the half-inhibitory concentration (IC50) in test [1] (setting [3]) was 772 nM; in test [2] it was less than 3 nM.

`CN1CCN(Cc2ccc(Nc3ncc4ccn(-c5ccc(C(=O)N6CCOCC6)c(F)c5)c4n3)cc2)CC1=O` [Example 337, 4-(4-{7-[3-Fluoro-4-(morpholine-4-carbonyl)-phenyl]-7H-pyrrolo[2,3-d]pyrimidin-2-ylamino}-benzyl)-1-methyl-piperazin-2-one]: the concentration for half-maximal inhibition (IC50) worked out at 185 nM in test [1] (setting [3]) and 6.1 nM in test [2].

On to `Fc1cc(-n2ccc3cnc(Nc4ccc(N5CCNCC5)nc4)nc32)cc(F)c1CN1CCOCC1` [Example 263, [7-(3,5-Difluoro-4-morpholin-4-ylmethyl-phenyl)-7H-pyrrolo[2,3-d]pyrimidin-2-yl]-(6-piperazin-1-yl-pyridin-3-yl)-amine], for which the results for the IC50 in test [1] (setting [3]) and in test [2] were 55 nM and less than 3 nM, respectively.

In the case of `CN1CCN(c2ccc(Nc3ncc4ccn(-c5cc(F)c(C(=O)N6CCOCC6)c(F)c5)c4n3)cn2)CC1` [Example 221], the IC50 came to 360 nM in test [1] (setting [3]) and 4.7 nM in test [2].

For `CC(C)Oc1ccc(Nc2ncc3ccn(-c4ccc(C(=O)N5CCOCC5)cc4F)c3n2)cc1` [Example 522, {3-Fluoro-4-[2-(4-isopropoxy-phenylamino)-pyrrolo[2,3-d]pyrimidin-7-yl]-phenyl}-morpholin-4-yl-methanone], the half-maximal inhibitory concentration (IC50) in test [1] (setting [3]) stood at 2890 nM; in test [2] it was 8 nM.

`Cc1cc(Nc2ncc3ccn(-c4cc(F)c(C(=O)N5CCOCC5)c(F)c4)c3n2)ccc1F` [Example 89, {2,6-Difluoro-4-[2-(4-fluoro-3-methyl-phenylamino)-pyrrolo[2,3-d]pyrimidin-7-yl]-phenyl}-morpholin-4-yl-methanone]: the results for the IC50 in test [1] (STAT1 translocation pathway) and in test [2] were 410 nM and less than 3 nM, respectively.

Take `CS(=O)(=O)c1ccc(-n2ccc3cnc(Nc4ccc(CN5CCCCC5)cc4)nc32)cc1` [Example 42, [7-(4-Methanesulfonyl-phenyl)-7H-pyrrolo[2,3-d]pyrimidin-2-yl]-(4-piperidin-1-ylmethyl-phenyl)-amine]: the half-maximal inhibitory concentration (IC50) in test [1] (setting [3]) turned out to be 170 nM; in test [2] it was 3.1 nM.

Regarding `CN1CCN(C(=O)c2ccc(Nc3ncc4ccn(-c5ccc(S(C)(=O)=O)cc5)c4n3)cc2Cl)CC1` [Example 94, {2-Chloro-4-[7-(4-methanesulfonyl-phenyl)-7H-pyrrolo[2,3-d]pyrimidin-2-ylamino]-phenyl}-(4-methyl-piperazin-1-yl)-methanone], the IC50 is 259 nM in test [1] (setting [3]) and 3.8 nM in test [2].

With `CC(C)Oc1ccc(Nc2ncc3ccn(-c4ccc(C(C)(C)C(=O)N5CCOCC5)cc4)c3n2)cc1` [Example 83, 2-{4-[2-(4-Isopropoxy-phenylamino)-pyrrolo[2,3-d]pyrimidin-7-yl]-phenyl}-2-methyl-1-morpholin-4-yl-propan-1-one], the IC50 in test [1] (setting [3]) was 460 nM; in test [2] it was less than 3 nM.

For the compound `COc1ccc(Nc2ncc3ccn(-c4cc(F)c(C(=O)N5CCOCC5)c(F)c4)c3n2)cn1` [Example 220], the IC50 is 880 nM in test [1] (setting [3]) and 11 nM in test [2].

For the compound `CC(C)Oc1ccc(Nc2ncc3ccn(-c4ccc(C(C)O)cc4)c3n2)cc1` (stereo not drawn) [Example 114, 1-{4-[2-(4-Isopropoxy-phenylamino)-pyrrolo[2,3-d]pyrimidin-7-yl]-phenyl}-ethanol], the figures for the IC50 in test [1] (setting [3]) and in test [2] were 202 nM and 5.9 nM, respectively.

On to `Cc1cc(Nc2ncc3ccn(-c4ccc(CN5CCOCC5)c(F)c4)c3n2)ccc1F` [Example 127, (4-Fluoro-3-methyl-phenyl)-[7-(3-fluoro-4-morpholin-4-ylmethyl-phenyl)-7H-pyrrolo[2,3-d]pyrimidin-2-yl]-amine], for which the IC50 in test [1] (setting [3]) worked out at 720 nM; in test [2], 10.5 nM.

`Cc1ccc(Nc2ncc3ccn(-c4cc(F)c(CN5CCOCC5)c(F)c4)c3n2)cc1C` [Example 289, [7-(3,5-Difluoro-4-morpholin-4-ylmethyl-phenyl)-7H-pyrrolo[2,3-d]pyrimidin-2-yl]-(3,4-dimethyl-phenyl)-amine]: the concentration for half-maximal inhibition (IC50) is 232 nM in test [1] (setting [3]) and less than 17 nM in test [2].

Regarding `Cc1ccc(Nc2ncc3ccn(-c4cc(F)c(CN5CCN(C)C(=O)C5)c(F)c4)c3n2)cc1C` [Example 310, 4-{4-[2-(3,4-Dimethyl-phenylamino)-pyrrolo[2,3-d]pyrimidin-7-yl]-2,6-difluoro-benzyl}-1-methyl-piperazin-2-one], the results for the IC50 in test [1] (setting [3]) and in test [2] were 570 nM and 6.4 nM, respectively.

Turning to `Cc1ccc(Nc2ncc3ccn(-c4cc(F)c(CN5CCS(=O)(=O)CC5)c(F)c4)c3n2)cc1Cl` [Example 129, (3-Chloro-4-methyl-phenyl)-{7-[4-(1,1-dioxido-thiomorpholin-4-ylmethyl)-3,5-difluoro-phenyl]-7H-pyrrolo[2,3-d]pyrimidin-2-yl}-amine], the values for the IC50 in test [1] (setting [3]) and in test [2] were 471 nM and 9 nM, respectively.

Consider `O=C(c1c(F)cc(-n2ccc3cnc(Nc4ccc(N5CCNC6(CC6)C5)nc4)nc32)cc1F)N1CCOCC1` [Example 268, (4-{2-[6-(4,7-Diaza-spiro[2.5]oct-7-yl)-pyridin-3-ylamino]-pyrrolo[2,3-d]pyrimidin-7-yl}-2,6-difluoro-phenyl)-morpholin-4-yl-methanone], for which the concentration for half-maximal inhibition (IC50) in test [1] (setting [3]) was 210 nM; in test [2], 7.8 nM.

Turning to `Cc1ccc(Nc2ncc3ccn(-c4ccc(C(=O)N5CCS(=O)(=O)CC5)c(F)c4)c3n2)cc1C` [Example 291, {4-[2-(3,4-Dimethyl-phenylamino)-pyrrolo[2,3-d]pyrimidin-7-yl]-2-fluoro-phenyl}-(1,1-dioxido-thiomorpholin-4-yl)-methanone], the IC50 in test [1] (setting [3]) is 54 nM; in test [2], less than 3 nM.

For the compound `CCN1CCCC1CNC(=O)c1cc(Nc2ncc3ccn(-c4ccc(S(C)(=O)=O)cc4)c3n2)ccc1F` (stereo not drawn) [Example 78, N-(1-Ethyl-pyrrolidin-2-ylmethyl)-2-fluoro-5-[7-(4-methanesulfonyl-phenyl)-7H-pyrrolo[2,3-d]pyrimidin-2-ylamino]-benzamide], the IC50 was 545 nM in test [1] (setting [3]) and 29 nM in test [2].

Regarding `Cn1cc(Nc2ncc3ccn(-c4cc(F)c(CN5CCOCC5)c(F)c4)c3n2)cn1` [Example 247, [7-(3,5-Difluoro-4-morpholin-4-ylmethyl-phenyl)-7H-pyrrolo[2,3-d]pyrimidin-2-yl]-(1-methyl-1H-pyrazol-4-yl)-amine], the IC50 in test [1] (setting [3]) was determined as 255 nM; in test [2], 3.7 nM.

Take `O=C(Cc1ccc(-n2ccc3cnc(Nc4ccc(C(F)(F)F)cc4)nc32)cc1)N1CCOCC1` [Example 144, 1-Morpholin-4-yl-2-{4-[2-(4-trifluoromethyl-phenylamino)-pyrrolo[2,3-d]pyrimidin-7-yl]-phenyl}-ethanone]: the figures for the IC50 in test [1] (setting [3]) and in test [2] were 475 nM and 4.7 nM, respectively.
